# Paper PMC4650712, “Conversion of cell-survival activity of Akt into apoptotic death of cancer cells by two mutations on the BIM BH3 domain” (Cell Death & Disease, 2015)
# Columns and labels:
# H1299 = test: MTT assay, H1299 lung cancer cells; format: cell-based, human; details: PTEN-silenced
# Description: (§1) For intracellular delivery, BH3BIM(I155R/E158S) was fused to the C-terminus of the cell penetration peptide (CPP) derived from HIV Tat (Figure 1). PC3 and HCT116 cells were treated with the CPP-BH3BIM(I155R/E158S) peptide, and the MTT assay was performed. […] We then measured the activity of Akt by examining the phosphorylation state of itself and its substrate GSK3β. […] To elaborate this observation, we examined the effect of the fusion peptide in three different human lung cancer cell lines. […] We then assessed the effect of the Akt activity by ectopically expressing wild-type Akt (Akt-WT), constitutively active Akt (myristoylated Akt; Akt-Myr) or kinase-dead-Akt (Akt-KD). […] The kinase activities of the three Akt versions were confirmed by examining GSK3β phosphorylation (Figures 6f and p-GSK3β). To know whether CPP-BH3BIM(I155R/E158S)-induced cell death might depend on BAX, the HCT116 BAX^+/− and the HCT116 BAX^−/− cell lines were transfected with an expression vector encoding AKT-Myr and the cells were treated with the peptide. […]
# (§2) Figure 6 CPP-fused BH3BIM(I155R/E158S) peptide induces death of PC3 cells. (a) Cell viability evaluated by the MTT assay 72 h after treatment of the peptide (0, 10 or 20 μM). […] Cytochrome c (green) was detected by anti-cytochrome c antibody and FITC-conjugated secondary antibody, and the nucleus was stained by DAPI. […]
# A549 = test: MTT assay, A549 lung cancer cells; format: cell-based, human; details: K-Ras mutation
# Description: as §1, §2
# PARP = PARP cleavage; format: cell-based; details: PTEN-transfected; indicator of caspase activation
# Description: Figure 7 The BH3BIM(I155R/E158S) sequence induces phosphorylation-dependent cell death. (a) Cell viability by the MTT assay. One day after transfection of PC3 cells with an empty vector (EV) or a PTEN-expressing vector (PTEN), cells were treated for 12 h with AuNP-anti-GST DNA aptamer composite coated with the indicated BH3BIM peptide fused to GST (5 μM). (b) Intracellular delivery of the GST-fused peptides. Cells were washed with PBS three times to remove proteins attached to the plasma membrane. M1 stands for BH3BIM (E158S), M2 for BH3BIM (I155R/E158A), and M3 for BH3BIM (I155R/E158S). (c) Cell viability by trypan blue dye exclusion assay. To confirm the effect in (a), cells were incubated with indicated materials for 24 h and stained with trypan blue for 10 min. Percent of live cells were determined by average of 200 cells in three independent experiments. (d) Immunostaining of cytochrome c in PC3 cells. Cells were transfected (EV or PTEN), and incubated with the CPP-BH3BIM(I155R/E158S) peptide (CPP-peptide) for 48 h. […] (e) PTEN blocked the cytochrome c release from mitochondria. Cells were incubated with CPP-BH3BIM(I155R/E158S) for 6 h and subjected to cell fractionation. […] (g) HEK293 cells were treated in the same way as in (a). Viable cells were evaluated 48 h after the treatment by the MTT assay. Error bars indicate the S.D. (n=3) […]
# HEK293 cells = test: MTT assay, HEK293 cells; format: cell-based; details: AuNP-protein or CPP-peptide
# Description: Figure 7 The BH3BIM(I155R/E158S) sequence induces phosphorylation-dependent cell death. (a) Cell viability by the MTT assay. One day after transfection of PC3 cells with an empty vector (EV) or a PTEN-expressing vector (PTEN), cells were treated for 12 h with AuNP-anti-GST DNA aptamer composite coated with the indicated BH3BIM peptide fused to GST (5 μM). (b) Intracellular delivery of the GST-fused peptides. Cells were washed with PBS three times to remove proteins attached to the plasma membrane. M1 stands for BH3BIM (E158S), M2 for BH3BIM (I155R/E158A), and M3 for BH3BIM (I155R/E158S). (c) Cell viability by trypan blue dye exclusion assay. To confirm the effect in (a), cells were incubated with indicated materials for 24 h and stained with trypan blue for 10 min. Percent of live cells were determined by average of 200 cells in three independent experiments. (d) Immunostaining of cytochrome c in PC3 cells. […] Viable cells were evaluated 48 h after the treatment by the MTT assay. […]
# PC3 and HEK293 cells were incubated with the GST-BH3BIM(I155R/E158S) protein conjugated to AuNP-anti-GST DNA aptamer composite[37] after transfection with a PTEN expression vector (pCMV Flag WT-PTEN; addgene plasmid #22231). […] After removing excess solution and washing with PBS, the precipitated materials were dissolved in […] of dimethyl sulfoxide and quantified by measuring the absorbance at 540 nm. […]
# PC3 cells [1] = test: MTT viability assay, PC3 cells, CPP-fused peptide; details: 72 h, 0, 10 or 20 μM, n=3, PTEN-null, elevated Akt activity
# PC3 cells [2] = test: Cell fractionation: cytochrome c release from mitochondria; format: cell-based; details: 6 h
# Description: Figure 7 The BH3BIM(I155R/E158S) sequence induces phosphorylation-dependent cell death. (a) Cell viability by the MTT assay. One day after transfection of PC3 cells with an empty vector (EV) or a PTEN-expressing vector (PTEN), cells were treated for 12 h with AuNP-anti-GST DNA aptamer composite coated with the indicated BH3BIM peptide fused to GST (5 μM). (b) Intracellular delivery of the GST-fused peptides. Cells were washed with PBS three times to remove proteins attached to the plasma membrane. M1 stands for BH3BIM (E158S), M2 for BH3BIM (I155R/E158A), and M3 for BH3BIM (I155R/E158S). (c) Cell viability by trypan blue dye exclusion assay. To confirm the effect in (a), cells were incubated with indicated materials for 24 h and stained with trypan blue for 10 min. Percent of live cells were determined by average of 200 cells in three independent experiments. (d) Immunostaining of cytochrome c in PC3 cells. Cells were transfected (EV or PTEN), and incubated with the CPP-BH3BIM(I155R/E158S) peptide (CPP-peptide) for 48 h. […] Cells were incubated with CPP-BH3BIM(I155R/E158S) for 6 h and subjected to cell fractionation. […] (g) HEK293 cells were treated in the same way as in (a). Viable cells were evaluated 48 h after the treatment by the MTT assay. Error bars indicate the S.D. (n=3) […]
# PC3 cells [3] = test: Immunofluorescence of cytochrome c, PC3 cells; format: cell-based, human
# Description: (§3) For intracellular delivery, BH3BIM(I155R/E158S) was fused to the C-terminus of the cell penetration peptide (CPP) derived from HIV Tat (Figure 1). PC3 and HCT116 cells were treated with the CPP-BH3BIM(I155R/E158S) peptide, and the MTT assay was performed. […] We then measured the activity of Akt by examining the phosphorylation state of itself and its substrate GSK3β. […] To elaborate this observation, we examined the effect of the fusion peptide in three different human lung cancer cell lines. […] We then assessed the effect of the Akt activity by ectopically expressing wild-type Akt (Akt-WT), constitutively active Akt (myristoylated Akt; Akt-Myr) or kinase-dead-Akt (Akt-KD). […] The kinase activities of the three Akt versions were confirmed by examining GSK3β phosphorylation (Figures 6f and p-GSK3β). To know whether CPP-BH3BIM(I155R/E158S)-induced cell death might depend on BAX, the HCT116 BAX^+/− and the HCT116 BAX^−/− cell lines were transfected with an expression vector encoding AKT-Myr and the cells were treated with the peptide. […] The survival of the BAX^−/− cells despite the CPP-BH3BIM(I155R/E158S) treatment could be explained by an observation that the designed peptide only weakly binds to MCL-1 (not shown), which is a major inhibitor of BAK.[35] Presumably, both MCL-1 and BAK are expressed in these cells.[36]
# Figure 6 CPP-fused BH3BIM(I155R/E158S) peptide induces death of PC3 cells. (a) Cell viability evaluated by the MTT assay 72 h after treatment of the peptide (0, 10 or 20 μM). N.S indicates non-significance. Error bars indicate S.D. (n=3). (b) The immunofluorescence images of PC3 and HCT116 cells treated with 20-μM CPP-BH3BIM(I155R/E158S). Cytochrome c (green) was detected by anti-cytochrome c antibody and FITC-conjugated secondary antibody, and the nucleus was stained by DAPI. The large boxes are the enlargement of the small boxes, highlighting the cytochrome c staining. (c) Western blot (WB) analysis to examine the effect of CPP-BH3BIM(I155R/E158S) on the phosphorylation of Akt (at Ser473) and GSK3β (at Ser9). PC3 cells were incubated with the peptide for 6 h at the indicated concentration. t-Akt and t-GSK3β stand for total Akt and GSK3β, respectively. (d) MTT assay to examine the cytotoxic effect of CPP-BH3BIM(I155R/E158S) on lung cancer cell lines. […] (e) Promotion of CPP-BH3BIM(I155R/E158S)-induced death of HCT116 cells by Akt. Cells were transfected with the indicated vectors for 24 h and incubated with the peptide for 72 h. Cell death was promoted by Akt-WT and Akt-Myr, but not by Akt-KD. (f) Phosphorylation of GSK3β (p-GSK3β) by Akt-WT and Akt-Myr, but not by Akt-KD. […]
# Figure 7 The BH3BIM(I155R/E158S) sequence induces phosphorylation-dependent cell death. […] Percent of live cells were determined by average of 200 cells in three independent experiments. […]
# GSK3β = test: Western blot of GSK3β phosphorylation (Ser9) in PC3 cells; details: 6 h
# H23 = test: MTT assay, H23 lung cancer cells; format: cell-based, human; details: wild-type K-Ras, normal Akt activity
# Description: as §1, §2
# HCT116 cells [4] = test: Immunofluorescence of cytochrome c, HCT116 cells; format: cell-based, human; details: 20 μM
# Description: as §1, with “p-GSK3β).” for “p-GSK3β). To know whether CPP-BH3BIM(I155R/E158S)-induced cell death might depend on BAX, the HCT116 BAX^+/− and the HCT116 BAX^−/− cell lines were transfected with an expression vector encoding AKT-Myr and the cells were treated with the peptide.”
# as §2
# Cells were seeded on a cover glass and incubated with the CCP-fused BH3BIM(I155R/E158S) peptide. […] The immunofluorescence signal was detected by fluorescence microscopy (Zeiss, Oberkochen, Germany).
# Akt = test: Western blot of Akt phosphorylation (Ser473) in PC3 cells; format: cell-based; details: 6 h
# Description: as §1, §2
# HCT116 cells [5] = test: Death of HCT116 cells with ectopic Akt; format: cell-based; details: peptide 72 h
# Description: as §3
# Figure 6 CPP-fused BH3BIM(I155R/E158S) peptide induces death of PC3 cells. (a) Cell viability evaluated by the MTT assay 72 h after treatment of the peptide (0, 10 or 20 μM). N.S indicates non-significance. Error bars indicate S.D. (n=3). (b) The immunofluorescence images of PC3 and HCT116 cells treated with 20-μM CPP-BH3BIM(I155R/E158S). Cytochrome c (green) was detected by anti-cytochrome c antibody and FITC-conjugated secondary antibody, and the nucleus was stained by DAPI. The large boxes are the enlargement of the small boxes, highlighting the cytochrome c staining. (c) Western blot (WB) analysis to examine the effect of CPP-BH3BIM(I155R/E158S) on the phosphorylation of Akt (at Ser473) and GSK3β (at Ser9). […]
sequence,measurement,setting,value
"YGRRARRRARREIWIAQELRRRGDSFNAYYAR [CPP-BH3BIM(I155R/E158S), BH3BIM(I155R/E158S) fused to the C-terminus of the cell penetration peptide (CPP) derived from HIV Tat]",sensitivity to the peptide,H1299,exhibited sensitivity to the peptide
same,response to the peptide,A549,moderate response
same,PARP cleavage with PTEN,PARP,PTEN also blocked PARP cleavage
same,viability of HEK293 cells (Supplementary Figure S6),HEK293 cells,slightly increased cell viability without a statistical significance
same,cytotoxic activity,PC3 cells [1],strong cytotoxic activity
same,cytoplasmic cytochrome c,PC3 cells [2],Increase of cytoplasmic cytochrome c
same,increase of cytoplasmic cytochrome c with PTEN expression,PC3 cells [2]; PTEN-transfected,obviously blocked by PTEN expression
same,apoptotic cell death,"PC3 cells [3]; 20 μM, immunofluorescence",underwent apoptotic cell death
same,cytochrome c distribution,"PC3 cells [3]; 20 μM, immunofluorescence, untransfected PC3",diffused in the cytoplasm and gradually accumulated in the nucleus
same,cytochrome c staining pattern,"PC3 cells [3]; EV-transfected PC3, 48 h",diffused nuclear pattern
same,cytochrome c staining pattern,"PC3 cells [3]; PTEN-expressing PC3, 48 h",Cytoplasmic puncta staining pattern
same,phosphorylation of GSK3β (Ser9),"GSK3β; PC3 cells, western blot",reduced the phosphorylation of GSK3β
same,p-S9-GSK3β,GSK3β; PTEN experiment (Figure 7e),Reduction of p-S9-GSK3β
same,response to the peptide,H23,did not respond to this peptide
same,cytochrome c distribution,HCT116 cells [4],retained the puncta staining pattern
same,phosphorylation of Akt (Ser473),Akt,not Akt itself
same,promotion of peptide-induced cell death,HCT116 cells [5]; Akt-KD transfected 24 h,did not show an additive effect
same,promotion of peptide-induced cell death,HCT116 cells [5]; Akt-Myr transfected 24 h,promoted death of HCT116 cells
same,promotion of peptide-induced cell death,HCT116 cells [5]; Akt-WT transfected 24 h,promoted death of HCT116 cells
